In US20100056519A1, “COMPOSITION AND METHOD FOR REDUCING PLATELET ACTIVATION AND FOR THE TREATMENT OF THROMBOTIC EVENTS” (priority 2008, published 2010):
Marks after values point to notes of the source that are not given here.

Legend:
Type in all cases: cell-based, human
[1] = system: P-selectin (CD62p); assay: TRAP-stimulated whole blood flow cytometry, P-selectin; conditions: Mean ± SD
Procedure: (§1) The methodology employed was conventional aggregation induced by 5 μM ADP, 1 μg/ml collagen, 10 μM TRAP, whole blood aggregation with 1 μg/ml collagen, Ultegra, and PFA-100 Analyzers, expression of 14 intact, and TRAP-stimulated major receptors by whole blood flow cytometry were utilized to assess platelet activity after preincubation with escalating concentrations of E5555 (20 ng/ml, 50 ng/ml, and 100 ng/ml). The experiments were performed in healthy volunteers, CAD patients treated with ASA, and CAD patients treated with ASA and clopidogrel combination (n=10, for each group).
(§2) An Informed Consent was obtained from all volunteers. Drug users were excluded from data analysis. The study was approved by Quorum Institutional Review Board. All subjects underwent blood sampling after at least 30 minutes of rest and two or more hours of fasting. Blood (28 ml) was drawn between 8 and 10 a.m. in order to avoid any diurnal influence and sampled from an antecubital vein using a 21-gauge butterfly needle containing 3.2% sodium citrate (1:9 volume) after having discarded the first 1.5 ml of free running blood. Four Vacutainer tubes (7.0 ml) were collected for a total of 28 ml of whole blood-citrate mixture from each study participant. Chronologically, blood samples were delivered to the core laboratory facility within 45 minutes after drawing. Then all tubes of blood-citrate mixture were pooled. One portion of pooled blood (5 ml) was kept as an internal control and pretreated with the vehicle. The remaining blood (23 ml) was used for the in vitro exposure to E5555 at concentrations of 20 ng/ml, 50 ng/ml, and 100 ng/ml. […] The platelet aggregation studies, Rapid Analyzers measures, and flow cytometry preparations were initiated within no more than 110 minutes following the blood draw, incubation with the drug, and preparation of the samples.
(§3) Formation of platelet-leukocyte aggregates was assessed by dual labeling with pan-platelet marker (CD151), and then with CD14, the macrophage receptor for endotoxin lipopolysaccharides (PharMingen, and Coulter, San Diego, Calif., USA). The tubes were then covered with aluminum foil and incubated at 37° C. for 40 minutes with gentle rotation. After incubation, samples were immediately analyzed on a Becton Dickinson FACScan flow cytometer. The instrument was set up to measure forward light scatter, and FITC fluorescence. All parameters were collected using four-decade logarithmic amplification. The data was retrieved in list mode files and then analyzed. P selectin was expressed as percent positive cells. Other antigens were expressed as log mean fluorescence intensity.
For flow cytometry (TRAP-stimulated) all of the above flow cytometry experiments were identically repeated utilizing prestimulation with 10 μmol/L TRAP for 5 minutes at 37° C. To determine statistics, a Paired Sign Test was used to define significance of differences between vehicle and E5555-treated groups. The Mann-Whitney U test was used to analyze nonparametric data. Normally distributed data were expressed as mean±standard error (m±SE), and skewed data as median (range). All P-values were two sided. All analysis was performed using the SPSS v9.0 program (SPSS Inc., Chicago, Ill.).

[2] = system: WEDE15; assay: Unstimulated whole blood flow cytometry, WEDE15; conditions: Mean ± SD
Procedure: as §1, §2, §3

[3] = system: LAMP-3 (CD63); assay: Unstimulated whole blood flow cytometry, LAMP-3; conditions: for LAMP-3 (CD63), Mean Fluorescence Intensity: unstimulated, Mean ± SD
Procedure: as §1, §2, §3

[4] = system: platelets; assay: Platelet Function Analyzer PFA-100, ADP/Collagen cartridge; conditions: for Closure time (s): recording limit 300 s
Procedure: as §1, §2
Whole blood aggregation was determined using a Chronolog device 592A. The whole blood-citrate mixture was diluted 1:1 with 0.5 ml phosphate buffered saline and gently swirled. The sample then was allowed to warm to 37° C. for 5 minutes then transferred to the assay well. The electrode was then placed in the cuvette and the sample was stimulated with 1 μg/ml collagen. The change in electrical impedance was digitally recorded. Each whole blood sample was analyzed utilizing 2 different clinical devices: • (1) a Rapid Platelet-Function Assay (Ultegra®) (Accumetrics, Inc., San Diego, Calif.), which is a rapid platelet-function assay aspirin cartridge test with TRAP used as agonist. Polystyrene beads coated with fibrinogen are placed in a cartridge along with the peptide that activates thrombin receptor. Anticoagulated whole blood was added to the cartridge, and agglutination between platelets and coated beads was recorded. The data mirrors turbidimetric platelet aggregation and presumably reflects platelet glycoprotein IIb/IIIa blockade. Ultegra RPFA-TRAP Assay results were reported as Platelet Activation Units (PAU); and • (2) Platelet-Function Analyzer PFA-100 ™ (Dade Behring, Deerfield Ill.), which is a high shear-inducing analyzer that simulates primary hemostasis after injury to a small vessel under flow conditions. The device provides a constant negative pressure that aspirates whole blood, which comes into contact with the collagen, coated membrane and then passes through the aperture. The time required to obtain occlusion of the aperture is digitally recorded. The time to aperture occlusion (the closure time) is recorded in seconds and is inversely related to the degree of shear-induced platelet activation. We used ADP/Collagen cartridges in the index study. Both PFA-100 and Ultegra assays were performed in duplicate. An electronic quality control test was performed on each instrument daily prior to performing any patient samples.

[5] = system: GPIb (CD42b); assay: Unstimulated whole blood flow cytometry, GPIb; conditions: for GPIb (CD42b), Mean Fluorescence Intensity: unstimulated, Mean ± SD
Procedure: as §1, §2, §3

[6] = E5555 20 ng/ml, Patients (ASA + C)
[7] = E5555 50 ng/ml, Patients (ASA + C)
[8] = E5555 100 ng/ml, Patients (ASA + C)
[9] = E5555 100 ng/ml, Patients (ASA)
[10] = overall summary, stimulation not stated

Structure (SMILES): Br.CCOc1cc2c(c(F)c1OCC)C(=N)N(CC(=O)c1cc(N3CCOCC3)c(OC)c(C(C)(C)C)c1)C2 [E5555, 1-(3-tert-butyl-4-methoxy-5-morpholinophenyl)-2-(5,6-diethoxy-7-fluoro-1-imino-1,3-dihydro-2H-isoindol-2-yl)ethanone hydrobromide]
- P-selectin (CD62p), % positive cells [1, 6]: 11 ± 5 % positive cells
- P-selectin (CD62p), % positive cells ([1]; E5555 20 ng/ml, Patients (ASA)): 22 ± 6 % positive cells
- P-selectin (CD62p), % positive cells ([1]; E5555 20 ng/ml, Volunteers): 31 ± 8 % positive cells
- P-selectin (CD62p), % positive cells [1, 7]: 8 ± 3 % positive cells
- P-selectin (CD62p), % positive cells ([1]; E5555 50 ng/ml, Patients (ASA)): 15 ± 4 % positive cells
- P-selectin (CD62p), % positive cells ([1]; E5555 50 ng/ml, Volunteers): 14 ± 3 % positive cells
- P-selectin (CD62p), % positive cells [1, 8]: 3 ± 1 % positive cells
- P-selectin (CD62p), % positive cells [1, 9]: 8 ± 4 % positive cells
- P-selectin (CD62p), % positive cells ([1]; E5555 100 ng/ml, Volunteers): 11 ± 3 % positive cells
- WEDE15, Mean Fluorescence Intensity [2, 6]: 30 ± 8 MFI
- WEDE15, Mean Fluorescence Intensity ([2]; E5555 20 ng/ml, Patients (ASA)): 40 ± 11 MFI
- WEDE15, Mean Fluorescence Intensity ([2]; E5555 20 ng/ml, Volunteers): 40 ± 9 MFI
- WEDE15, Mean Fluorescence Intensity [2, 7]: 27 ± 6 MFI
- WEDE15, Mean Fluorescence Intensity ([2]; E5555 50 ng/ml, Patients (ASA)): 38 ± 8 MFI
- WEDE15, Mean Fluorescence Intensity ([2]; E5555 50 ng/ml, Volunteers): 41 ± 6 MFI
- WEDE15, Mean Fluorescence Intensity [2, 8]: 29 ± 12 MFI
- WEDE15, Mean Fluorescence Intensity [2, 9]: 35 ± 5 MFI
- WEDE15, Mean Fluorescence Intensity ([2]; E5555 100 ng/ml, Volunteers): 40 ± 10 MFI
- LAMP, effect in words [3, 10]: not affected
- LAMP-3 (CD63), Mean Fluorescence Intensity [3, 6]: 7.2 ± 1.3 MFI
- LAMP-3 (CD63), Mean Fluorescence Intensity ([3]; E5555 20 ng/ml, Patients (ASA)): 7.0 ± 1.6 MFI
- LAMP-3 (CD63), Mean Fluorescence Intensity ([3]; E5555 20 ng/ml, Volunteers): 8.1 ± 2.0 MFI
- LAMP-3 (CD63), Mean Fluorescence Intensity [3, 7]: 7.0 ± 1.7 MFI
- LAMP-3 (CD63), Mean Fluorescence Intensity ([3]; E5555 50 ng/ml, Patients (ASA)): 7.2 ± 1.5 MFI
- LAMP-3 (CD63), Mean Fluorescence Intensity ([3]; E5555 50 ng/ml, Volunteers): 8.0 ± 1.7 MFI
- LAMP-3 (CD63), Mean Fluorescence Intensity [3, 8]: 6.9 ± 1.8 MFI
- LAMP-3 (CD63), Mean Fluorescence Intensity [3, 9]: 6.5 ± 1.9 MFI
- LAMP-3 (CD63), Mean Fluorescence Intensity ([3]; E5555 100 ng/ml, Volunteers): 7.7 ± 2.1 MFI
- Closure time (s) [4, 6]: >300*† s
- Closure time (s) ([4]; E5555 20 ng/ml, Patients (ASA)): >300*† s
- Closure time (s) ([4]; E5555 20 ng/ml, Volunteers): >300*† s
- Closure time (s) [4, 7]: >300*† s
- Closure time (s) ([4]; E5555 50 ng/ml, Patients (ASA)): >300*† s
- Closure time (s) ([4]; E5555 50 ng/ml, Volunteers): >300*† s
- Closure time (s) [4, 8]: >300*† s
- Closure time (s) [4, 9]: >300*† s
- Closure time (s) ([4]; E5555 100 ng/ml, Volunteers): >300*† s
- Platelet Analyzer readings, shear-induced activation, effect in words ([4]; overall summary): reduced shear-induced activation
- GPIb expression, effect in words [5, 10]: significant reduction
- GPIb (CD42b), Mean Fluorescence Intensity [5, 6]: 103 ± 7 MFI
- GPIb (CD42b), Mean Fluorescence Intensity ([5]; E5555 20 ng/ml, Patients (ASA)): 106 ± 5 MFI
- GPIb (CD42b), Mean Fluorescence Intensity ([5]; E5555 20 ng/ml, Volunteers): 162 ± 19 MFI
- GPIb (CD42b), Mean Fluorescence Intensity [5, 7]: 94 ± 12 MFI
- GPIb (CD42b), Mean Fluorescence Intensity ([5]; E5555 50 ng/ml, Patients (ASA)): 109 ± 7 MFI
- GPIb (CD42b), Mean Fluorescence Intensity ([5]; E5555 50 ng/ml, Volunteers): 145 ± 20 MFI
- GPIb (CD42b), Mean Fluorescence Intensity [5, 8]: 100 ± 15 MFI
- GPIb (CD42b), Mean Fluorescence Intensity [5, 9]: 111 ± 10 MFI
- GPIb (CD42b), Mean Fluorescence Intensity ([5]; E5555 100 ng/ml, Volunteers): 157 ± 16 MFI
